Data taken from patent US8501166B2, “Pyrimidinyl indole compounds” (Hutchison Medipharma Limited, priority 2010, dated 2013).

Key:
[1] = system: OVA-induced airway inflammation; assay: OVA-induced pulmonary inflammation in Brown-Norway rats; type: in vivo; conditions: Rattus norvegicus, 480 h; BN rats, 0.3 to 30 mg/kg oral bid, day 20 and 21; read-out: ED50, increase of total cells and eosinophiles in BAL fluids
Protocol: To evaluate the effects of IKKβ inhibitors on antigen-driven airway inflammation in vivo, the compound is also tested in OVA-induced pulmonary inflammation model in rats essentially as described in a method reported in the literature (Yamamoto N, Takeshita K, Shichijo M, Kokubo T, Sato M, Nakashima K, Ishimori M, Nagai H, Li Y F, Yura T, Bacon K B. J Pharm. Exp Ther. 2003; 306(3):1174-81). Briefly, male BN rats weighing from 240 to 260 g are sensitized by intraperitoneal injection of 1 mL of saline containing 1 mg of OVA and 13 mg of aluminum hydroxide on days 1, 2 and 3. Rats serving as normal control received 1 mL of saline instead of OVA. The test compound at doses of 0.3, 1, 3 and 30 mg/kg (bid) is orally administered to rats on day 20 and 21. On day 21 rats are challenged with 1% OVA for 15 minutes with Buxco Mass Dosing System. On day 22, rats are anesthetized with 1% Pentobarbital Sodium. The thoracic and abdominal cavities are opened. Plasma is collected from centrifuged specimens. The trachea is dissected and transected. Through the insertion of an 18-gauge catheter into the trachea, the lungs are lavaged with a total of 15 mL of sterile PBS, and then placed into a specimen container. Cell-free BAL supernatants are obtained by centrifugation of BAL fluids. All serum and BAL supernatants are stored at −80° C. until use. […]

[2] = system: collagen induced arthritis; assay: Rat collagen II induced arthritis (CIA) model; type: in vivo, Wistar Rats; conditions: 30 mg/kg oral bid, day 1 to day 21
Protocol: To confirm the results obtained in mouse CIA model, the compound is also tested in a CIA model in rat essentially as described in a method reported in the literature (Rosloniec E F, Cremer M, Kang A, Myers L K. Current Protocols in Immunology. 1996, 15.5.1-15.5.24). Briefly, Wistar Rats are immunized intradermally with 200 μg bovine collagen II emulsified in Freund's […] on day 0 and with 100 μg collagen II emulsified in IFA (incomplete Freund's adjuvant) on day 7. The hind paw volume is measured before and after the immunization. The disease development of four paws is quantified with arthritis scores. Rats in normal and model groups are treated with vehicle or drug (treated group). Rats in treated group are orally administered with the testing compound at doses of 3, 10, 30 mg/kg (bid), from day 1 to day 21 after the first immunization. In the LEF group, as a positive control, rats are orally administered with LEF at a dose of 10 mg/kg, q.d.

[3] = system: LPS-induced plasma IL-6 production; assay: LPS-induced plasma cytokine production in mouse, IL-6; type: in vivo, Balb/c mice; conditions: oral 1 h before LPS 0.4 mg/kg i.p.
Protocol: Alternately, the compound is screened for its ability to inhibit the LPS-induced cytokine production in rat plasma according to the method reported in the literature (Ziegelbauer K, Gantner F, Lukacs N W, et al. Br J. Pharmacol. 2005,145(2):178-92). Briefly, Lewis rats (male, body weight 140 g-180 g) are used in the experiments. Animals (8/group) are given 1 to 100 mg/kg of the testing compound (suspension in 35% solutol & 60% PEG400 & 5% PG) or vehicle by oral gavage at 1 h prior to intraperitoneal administration of LPS 0.4 mg/kg. Ninety minutes after the intraperitoneal administration of LPS, blood is collected in heparin anticoagulated tubes to measure TNFα using R&D System ELISA Kit based on the general Kit protocols. The plasma sample is diluted 100 fold with the dilution buffer and 50 μL of diluted sample is used in each measurement. The plate is read on a SPECTRAMAX® M2e Plus Plate Reader and TNFα levels are analyzed based on the standard curve. The drug levels in plasma are measured with LC-MS-MS. […] Alternately, the compound is screened for its ability to inhibit the LPS-induced cytokine production in mouse plasma. Balb/c mice (female, body weight 18-20 g) are used in the experiments. […] The plate is read on a SPECTRMAX® M2e Plus Plate Reader and the data is analyzed using a standard curve.

[4] = system: LPS-induced joint TNFα production; assay: LPS-induced acute joint inflammation in rat; type: in vivo, Wistar rats; conditions: oral 1 h before intra-articular LPS 10 μg
Protocol: To further investigate the effects of IKKβ inhibitor on mechanism-relevant joint inflammation, the compound is screened for its ability to inhibit the LPS-induced joint acute inflammation in rat essentially as describe by a method reported in the literature (Matsukawa A, Yoshimura T, Miyamoto K, Ohkawara S, Yoshinaga M. Lab Invest. 1997, 76(5):629-38). Briefly, Wistar rats (female, body weight 150 g-170 g) are used in the experiments Animals (8/group) are given 1 to 100 mg/kg of the test compound [suspension in 35% Solutol (Macrogol 15 Hydroxystearate) & 60% PEG400 & 5% PG (propylene glycol)] or vehicle by oral gavage at 1 h prior to intra-articular (i.a.) administration of 10 μg of LPS in 10 μL of saline on left hind knee of each rat, using a 26-gauge needle. The right hind knee of each rat is injected with 10 μL of saline as a control. Two hour after LPS injection, each […] of the rats is lavaged with 100 μL of saline. The synovial fluids are collected and stored at -80° C. The […] is diluted 2 fold with the dilution buffer and 50 μL of the diluted sample is used for the measurement of TNFα levels using R&D System ELISA Kit based on the general Kit protocol. The plate is read on a SPECTRAMAX® M2e Plus Plate Reader and TNFα levels are analyzed using a standard curve. The drug levels are also measured by liquid chromatography-tandem mass spectrometry (LC-MS-MS).

## Cl.O=C(NC1CC1)c1cccc2[nH]c(-c3nc(N[C@@H]4CCC[C@H]4O)ncc3Cl)cc12 [Example 2, 2-{5-Chloro-2-[(1R,2R)-2-hydroxycyclopentylamino]pyrimidin-4-yl}-N-cyclopropyl-1H-indole-4-carboxamide hydrochloride]
[1]
  ED50: 0.49 mg/kg
[2]
  arthritis scores and hind paws volume: significantly attenuates collagen induced arthritis
[3]
  ED50: 15.1 mg/kg
[4]
  ED50: 23.4 mg/kg
